According to patent US8691864B2, “Agents useful for reducing amyloid precursor protein and treating dementia and methods of use thereof” (priority 2000, dated 2014):

Columns and labels:
[1] = test system: total Aβ peptide; assay: total Aβ ELISA in SK-N-SH conditioned medium; format: cell-based, human; settings: 50 μM
Method: Total Aβ peptide levels in SH-SY-SY and SK-N-SH cultured samples were assayed by a sensitive ELISA (Suzuki et al., 1994). For total Aβ measurements in conditioned medium, the rabbit polyclonal antibody #3160 (1-40 residues of Aβ) was used as a capture antibody for all species of Aβ peptide (Aβ1-40 and Aβ1-42) while monoclonal antibody 4G8 (17-25 residues of Aβ) was used to detect Aβ peptide levels, and the values were expressed as the mean of six independent assays.
Likewise, (+)-phenserine reduced BAPP protein levels and total Aβ peptide levels at 16 hours (FIG. 5).

[2] = test system: Aβ1-42; assay: Aβ1-42 levels in cerebral cortex of transgenic mice, ELISA; format: in vivo; settings: formic acid extraction, 3 weeks daily
Method: Greater reductions could be achieved, but, as previously reported, doses of >5 mg/kg produce cholinergic side effects for the (−)-enantiomer but not for the (+)-enantiomer.
Samples of cerebral cortex from the transgenic mice then were analyzed for β amyloid peptide (Aβ) levels. Specifically, Aβ1-40 and Aβ1-42 levels, following formic acid extraction, were determined by ELISA assay (Suzuki et al., 1994).

[3] = test system: APP-mRNA 5′UTR; assay: CAT reporter assay with βAPP-mRNA 5′UTR in transfected U373 MG cells; format: cell-based
Method: One day prior to transfection, U373 cells were plated onto 100 mm dishes at a density of 3×10^5 cells. On the day of transfection, the cells were given 5 ml of fresh media containing 10% FBS, 2 mM glutamine in DMEM. The cells were transfected using a calcium phosphate precipitation method, as per the manufacturer's protocol and described previously (Rogers et al., 1999). Briefly, for each plate, three μg of DNA (5′UTR APP-PSV2-CAT or PSV2-CAT vector) were placed in a final volume of […] of 250 mM CaCl2. The chloramphenicol acetyl transferase (CAT) gene was used as a reporter gene. The DNA solution was slowly pipetted into an aerated, equivalent volume of 2×HeBS, pH 7.05. The resulting precipitate was allowed to stand 10-20 min at RT before its addition to the cells. After 18 h, the medium was changed and the transfected cells were left for two days before drug treatment.
The cell lysates from transfected U373 cells treated with phenserine were analyzed for their CAT activity using a colorimetric enzyme immunoassay (Boehringer Mannheim, Indianapolis, Ind.). Briefly, 50 μg of protein (an amount previously found to lie within the linear range of the assay) were placed onto anti-CAT coated microtiter plate modules and allowed to bind for 1 h at 37° C. The plates were washed thoroughly after each step. Next, a digoxigenin-labeled anti-CAT antibody was added to the samples and incubated for 1 h at 37° C. A subsequent antibody, anti-digoxigenin conjugated to peroxidase, was placed in the wells for another hour under similar conditions. Finally peroxidase substrate, ABTS, was added to each well and the absorbance of each sample was measured at a wavelength of 405 nm.
The plasmid PSV2-APP-CatD was provided by Dr. Rogers (1999). […]
Quantitation of the fold stimulus of CAT gene activity conferred by the 5′ UTR βAPP-mRNA was measured. ELISA readings of CAT expression were measured at 405 nm. […] In other assays where the time of treatment was extended to 48 hours, only a 2-fold decrease in CAT reporter mRNA was detected with phenserine treatment.

[4] = test system: SK-N-SH cells; assay: LDH assay / cell number and viability, SK-N-SH cells; format: cell-based, human
Description: Measurement of released lactate dehydrogenase (LDH) in the conditioned medium was undertaken as a marker of cell viability and integrity, as described previously (Lahiri et al., 1997 and 1998).
This was not associated with cellular dysfunction, as determined by measurement of LDH levels versus untreated controls (FIG. 4C).

[5] = in vivo toxicity, i.p. administration to rodents
Method: This persisted for an hour and is related to central cholinergic overdrive. […] Animals were incapacitated at 20 mg/kg (N=3 per dose group), and 2 were killed when moribund.

Q: Which results are given for `CN1CC[C@@]2(C)c3cc(OC(=O)Nc4ccccc4)ccc3N(C)[C@@H]12` [(−)-phenserine]?
A: reduction of total Aβ versus untreated controls ([1]; 8 hours): 14%; reduction of total Aβ versus untreated controls ([1]; 16 hours): 31%; reduction of Aβ1-42 levels [2]: 53%; CAT activity in pSV2 CAT (parental vector) transfected cells ([3]; control vector, all time points): no inhibition; decrease of CAT gene activity conferred by the 5′ UTR βAPP-mRNA ([3]; pSV2 (APP) CAT transfected U373, 50 μM, 1 hour): 4 fold; decrease in CAT activity ([3]; pSV2 (APP) CAT transfected U373, treatment extended to 48 hours): 2 fold; LDH levels in media ([4]; SK-N-SH, 50 μM, up to 16 hours): no significant difference between treated and untreated levels; toxicity as assessed by an LDH assay ([4]; SK-N-SH, 0.5, 5 or 50 μM, 16 hours): no significant toxicity; clinical signs ([5]; 5 mg/kg): a fine tremor is observed; clinical signs ([5]; 7.5 mg/kg): Tremor together with symptoms of peripheral cholinergic overdrive; duration of tremor and peripheral cholinergic symptoms ([5]; 7.5 mg/kg): ~3 h; clinical signs ([5]; 20 mg/kg): incapacitated
